Results reported in patent US20250230193A1, “CYCLIC COMPOUND HAVING SELECTIVE KRAS INHIBITORY EFFECT ON HRAS AND NRAS” (CHUGAI SEIYAKU KABUSHIKI KAISHA, priority 2022, published 2025).
Where a SMILES comes first, the peptide text is derived from it. Bridges are numbered along the chain shown (N, C = ends). [ ]: non-standard residue; d: D form. The star is where a group is joined. hPhe(3-Cl-4-CF3) = N[C@@H](CCc1ccc(C(F)(F)F)c(Cl)c1)C(=O)O; NPrPhe(4-CF3) = CCCN[C@@H](Cc1ccc(C(F)(F)F)cc1)C(=O)O; NMeGly(cPent) = CN[C@H](C(=O)O)C1CCCC1; Pro(4,4-Me2) = CC1(C)CN[C@H](C(=O)O)C1; Hyp = O=C(O)[C@@H]1C[C@@H](O)CN1; NMeD = CN[C@@H](CC(=O)O)C(=O)O; NMeL = CN[C@@H](CC(C)C)C(=O)O; Morpholide = C1CN(*)CCO1; NMeA = CN[C@@H](C)C(=O)O; Ac5c = NC1(C(=O)O)CCCC1; Aze = O=C(O)[C@@H]1CCN1; Sar = CNCC(=O)O

What was measured:
[1] = biological target: GDP-bound NRAS wild-type protein (Homo sapiens, UniProt P01111); experiment: Binding to NRAS by surface plasmon resonance (SPR), Single Cycle Kinetics; conditions: for NRAS/KRAS (ratio of KD value with respect to NRAS to KD value with respect to KRAS): GDP-bound NRAS wild-type vs GDP-bound KRAS wild-type
[2] = biological target: GDP-bound HRAS wild-type protein (Homo sapiens, UniProt P01112); experiment: Binding to HRAS by surface plasmon resonance (SPR), Single Cycle Kinetics; conditions: for HRAS/KRAS (ratio of KD value with respect to HRAS to KD value with respect to KRAS): GDP-bound HRAS wild-type vs GDP-bound KRAS wild-type
GDP-bound HRAS wild-type protein, sequence (P01112 whole entry): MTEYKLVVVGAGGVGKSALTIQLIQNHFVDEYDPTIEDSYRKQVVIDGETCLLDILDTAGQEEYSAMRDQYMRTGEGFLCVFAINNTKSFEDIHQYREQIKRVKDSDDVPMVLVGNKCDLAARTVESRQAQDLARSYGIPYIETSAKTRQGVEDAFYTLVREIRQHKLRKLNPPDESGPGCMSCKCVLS

GDP-bound NRAS wild-type protein, sequence (P01111 whole entry): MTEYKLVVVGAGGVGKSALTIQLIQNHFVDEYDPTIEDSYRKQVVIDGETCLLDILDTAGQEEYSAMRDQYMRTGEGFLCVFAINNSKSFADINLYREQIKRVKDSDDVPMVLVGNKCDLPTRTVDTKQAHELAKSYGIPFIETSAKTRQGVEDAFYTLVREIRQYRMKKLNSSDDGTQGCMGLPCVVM

## CCO[C@@H]1C[C@H]2C(=O)NC3(CC(C)(C)C3)C(=O)N(C)[C@@H](C3CCCC3)C(=O)N(C)[C@H](C(=O)N(C)C)CC(=O)N(C)[C@H]3CCCCC/C=C/c4ccc(cc4)C[C@@H](C(=O)N(C)CC(=O)N[C@@H](CCc4ccc(Cl)c(Cl)c4)C(=O)N2C1)N1CC/C=C\C[C@@H](C1=O)N(C)C(=O)CN(C)C(=O)[C@H]([C@@H](C)CC)NC3=O [PP3057]
[1]; KD ratio NRAS/KRAS, SPR, GDP-bound wild-type proteins
  NRAS/KRAS (ratio of KD value with respect to GDP-bound NRAS wild-type protein to KD value with respect to KRAS): A (a compound having 10 or more and less than 20 is denoted as A)
[2]; KD ratio HRAS/KRAS, SPR, GDP-bound wild-type proteins
  HRAS/KRAS (ratio of KD value with respect to GDP-bound HRAS wild-type protein to KD value with respect to KRAS): B (a compound having 3 or more and less than 10 is denoted as B)

## CCO[C@@H]1C[C@H]2C(=O)NC3(CCC3)C(=O)N(C)[C@@H](C3CCCC3)C(=O)N(C)[C@H](C(=O)N3CCOCC3)CC(=O)N(C)[C@@H](CC(C)C)C(=O)N[C@@H](C3CC(F)(F)C3)C(=O)N(C)CC(=O)N(C)[C@H]3CCCCCN(C3=O)[C@@H](Cc3ccc(C(F)(F)F)cc3)C(=O)N(C)CC(=O)N[C@@H](CCc3cc(F)c(C(F)(F)F)c(F)c3)C(=O)N2C1 [PP0816]
[1]; SPR
  NRAS/KRAS (ratio of KD value with respect to NRAS to KD value with respect to KRAS): A (a compound having 10 or more and less than 20 is denoted as A)
[2]; SPR
  HRAS/KRAS (ratio of KD value with respect to HRAS to KD value with respect to KRAS): B (a compound having 3 or more and less than 10 is denoted as B)

## CCO[C@@H]1C[C@H]2C(=O)NC3(CCC3)C(=O)N(C)[C@@H](C3CCCC3)C(=O)N(C)[C@H](C(=O)N(C)C)CC(=O)N(C)[C@@H](COC)C(=O)N[C@@H]([C@@H](C)CC)C(=O)N(C)CC(=O)N(C)[C@H]3CCCCCN(C3=O)[C@@H](Cc3ccc(F)cc3)C(=O)N(C)CC(=O)N[C@@H](CCc3cc(F)c(C(F)(F)F)c(F)c3)C(=O)N2C1 [PP1193]
[1]; SPR
  NRAS/KRAS (ratio of KD value with respect to NRAS to KD value with respect to KRAS): B (a compound having 3 or more and less than 10 is denoted as B)
[2]; SPR
  HRAS/KRAS (ratio of KD value with respect to HRAS to KD value with respect to KRAS): B (a compound having 3 or more and less than 10 is denoted as B)

## CCCN1C(=O)[C@@H]2CCN2C(=O)[C@H](C)N(C)C(=O)[C@H]([C@@H](C)CC)NC(=O)[C@H](CC(C)C)N(C)C(=O)C[C@@H](C(=O)N2CCOCC2)N(C)C(=O)[C@H](C2CCCC2)N(C)C(=O)C2(CCCC2)NC(=O)[C@@H]2C[C@@H](OC)CN2C(=O)[C@H](CCc2ccc(C(F)(F)F)c(Cl)c2)NC(=O)CN(C)C(=O)[C@@H]1Cc1ccc(C(F)(F)F)cc1 [PP0283] ([NMeL]I[NMeA][Aze][NPrPhe(4-CF3)][Sar][hPhe(3-Cl-4-CF3)][Hyp](Me)[Ac5c][NMeGly(cPent)][NMeD]-Morpholide; lactam N-11)
[1]; KD ratio NRAS/KRAS, SPR
  NRAS/KRAS (ratio of KD for GDP-bound NRAS wild-type to KD for KRAS): C (A compound having a KD ratio of 0.1 or more and less than 3 is denoted as C)
[2]; KD ratio HRAS/KRAS, SPR
  HRAS/KRAS (ratio of KD for GDP-bound HRAS wild-type to KD for KRAS): C (A compound having a KD ratio of 0.1 or more and less than 3 is denoted as C)

## CCO[C@@H]1C[C@H]2C(=O)N(C)C3(CC(C)(C)C3)C(=O)N(C)[C@@H](C(CC)CC)C(=O)N(C)[C@H](C(=O)N(C)C)CC(=O)N(C)[C@@H](COC)C(=O)N[C@@H]([C@@H](C)CC)C(=O)N(C)CC(=O)N(C)[C@H]3C/C=C\CCN(C3=O)[C@@H](Cc3ccc(C)cc3)C(=O)N(C)CC(=O)N[C@@H](CCc3ccc(Cl)c(Cl)c3)C(=O)N2C1 [PP2810]
[1]; KD ratio NRAS/KRAS, class symbols
  NRAS/KRAS (ratio of KD value with respect to GDP-bound NRAS wild-type protein to KD value with respect to KRAS): AA (a compound having 20 or more is denoted as AA)
[2]; KD ratio HRAS/KRAS, class symbols
  HRAS/KRAS (ratio of KD value with respect to GDP-bound HRAS wild-type protein to KD value with respect to KRAS): A (a compound having 10 or more and less than 20 is denoted as A)

## CCCN1C(=O)[C@@H]2CCN2C(=O)CN(C)C(=O)[C@H]([C@@H](C)CC)NC(=O)[C@H](CC(C)C)N(C)C(=O)C[C@@H](C(=O)N2CCOCC2)N(C)C(=O)[C@H](C2CCCC2)N(C)C(=O)C2(CCCC2)NC(=O)[C@@H]2CC(C)(C)CN2C(=O)[C@H](CCc2ccc(C(F)(F)F)c(Cl)c2)NC(=O)CN(C)C(=O)[C@@H]1Cc1ccc(C(F)(F)F)cc1 [PP0456] ([NMeL]I[Sar][Aze][NPrPhe(4-CF3)][Sar][hPhe(3-Cl-4-CF3)][Pro(4,4-Me2)][Ac5c][NMeGly(cPent)][NMeD]-Morpholide; lactam N-11)
[1]; KD ratio NRAS/KRAS, SPR
  NRAS/KRAS (ratio of KD value with respect to GDP-bound NRAS wild-type protein to KD value with respect to KRAS): C (A compound having a KD ratio of 0.1 or more and less than 3 is denoted as C)
[2]; KD ratio HRAS/KRAS, SPR
  HRAS/KRAS (ratio of KD value with respect to GDP-bound HRAS wild-type protein to KD value with respect to KRAS): C (A compound having a KD ratio of 0.1 or more and less than 3 is denoted as C)

## CC[C@H](C)[C@@H]1NC(=O)[C@H](CC(C)C)N(C)C(=O)C[C@@H](C(=O)N2CCOCC2)N(C)C(=O)[C@H](C2CCCC2)N(C)C(=O)C2(CCCCC2)NC(=O)[C@@H]2CCCN2C(=O)[C@H](CCc2cc(F)c(C(F)(F)F)c(F)c2)NC(=O)CN(C)C(=O)[C@H](Cc2ccc(C(F)(F)F)cc2)N2CCCCC[C@@H](C2=O)N(C)C(=O)CN(C)C1=O [PP0498]
[1]; KD ratio NRAS/KRAS, SPR
  NRAS/KRAS (ratio of KD value with respect to GDP-bound NRAS wild-type protein to KD value with respect to KRAS): B (a compound having 3 or more and less than 10 is denoted as B)
[2]; KD ratio HRAS/KRAS, SPR
  HRAS/KRAS (ratio of KD value with respect to GDP-bound HRAS wild-type protein to KD value with respect to KRAS): B (a compound having 3 or more and less than 10 is denoted as B)
